Data published in US20100286406A1, “1,3- DIALKYLBENZIMIDAZOLE HALOGENIDES EXHIBITING REGENERATIVE, ANTI-INFLAMMATORY, AND ANTIMICROBIAL ACTIVITY” (priority 2007, published 2010).

Tested on: burn caused by light radiation
Assay: Light radiation burn model, epithelization of burn wounds (regenerative activity)
Format: in vivo
Excerpt: The regenerative activity of the claimed compounds was studied on a model of a burn caused by light radiation on a specialized apparatus. […] Unless this medication is applied to a burn, a keloidal scar is produced on the burn area and no skin appendages are formed.

## CC(C)(CO)C(O)C(=O)NCCCO (centres unmarked) [Panthenol, 2,4-dioxy-N-(3-oxypropyl)-3,3-dimethylbutyramide]
25th day of observations
  Percentage of fully epithelized burn wounds: 55%
30th day of observations
  Percentage of fully epithelized burn wounds: 85%
